Measured values published in patent publication US5661182A, “Method for lowering oxygen affinity of hemoglobin in redcell suspensions, in whole blood and in vivo” (Virginia Commonwealth University, priority 1995, dated 1997).
“Also recorded” adds a separate entry of the source.

Columns and labels:
[1] = test system: HbA/Yakima red blood cells; assay: Calculated oxygen delivery index of HbA/Yakima red blood cells (ΔY); type: cell-based, human; conditions: for ΔY (oxygen delivery index): HbA/Yakima RBC, 0.5 mM
Procedure: Human blood was collected on heparin from healthy nonsmoking donors. Bovine blood was provided by Pr Delpech, INA (Paris-Grignon). Red blood cells were washed three times in isotonic buffer, kept at 4° C., and used within 24 h after sampling. Hemoglobin Yakima, a high-oxygen-affinity variant [α2 β2 99 (G1) Asp>>His], was obtained from a known heterozygous carrier. Fresh Yakima red cells were processed in the same way as described above.
In Vivo Estimates for Percent of Oxygen Delivery. Table 4 presents the calculated oxygen delivery index for red blood cell suspensions in the presence or absence of 0.5 mM L3,5 or RSR-4. The experimental conditions for the experiments of Table 4 were the same as those used for Table 1. The oxygen delivery index was calculated from the experimental oxygen binding curves as the difference in hemoglobin oxygen saturation (percent) corresponding to the pO2 in the arterial blood (90 mmHg) and that in the mixed venous blood (40 mMHg). HbA/Yakima red blood cells were obtained from a heterozygous carrier of the high-affinity Hb variant.

[2] = test system: human red cells; assay: Hemolysis of human red cells in vitro; type: cell-based

For `CC(C)(Oc1ccc(CC(=O)Nc2cc(Cl)cc(Cl)c2)cc1)C(=O)O` [RSR-4, 2-[4-[[(3,5-dichloroanilino)carbonyl]methyl]phenoxy]-2-methylpropionic acid], the “ΔY (oxygen delivery index)” value ([1]; 50 μM HSA) was 19%, the “ΔY (oxygen delivery index)” value ([1]; no HSA) was 22% and the “oxygen delivery restoration” value ([1]; red cells containing 47% Hb Yakima) was “able to restore an almost normal oxygen delivery; also recorded: almost normal oxygen delivery index”. The hemolysis [2] was “No hemolysis”.
